Data reported in patent publication US4569915A, “P. obtusus strain” (Cetus Corporation, priority 1984, dated 1986).

Legend:
[1] = test system: L. betulinus P2O; assay: Relative activities of L. betulinus P2O on pyranose substrates; format: biochemical; settings: 20 mM substrate; D-glucose = 100
Protocol: The resulting clear yellow supernatant was further purified using DEAE chromatography in 30 mM TRIS-HCl, pH 8.5, and eluted from the 5×16 cm column using a 0-300 mM NaCl gradient. The protein eluted at about 75 mM NaCl. Fractions containing the peak of P2O activity were pooled and concentrated to 0.5 ml by Amicon PM30 ultrafiltration, and then fractionated, according to native molecular weight, using a 1.5×95 cm Biogel P300 column. The column was run at a flow rate of 0.1 ml per minute, using 100 mM sodium phosphate, pH 7.0. The protein eluted in a fraction corresponding to an apparent native molecular weight of about 300,000 daltons. […] Based on the molecular weight data, the protein appears to be a homotetramer.
The enzyme contains a covalently attached flavin on each subunit, and has absorption maxima at 275, 360, and 450 nm. The relative activities of the purified enzyme on the pyranose substrates D-glucose, L-sorbose, D-xylose and delta-D-gluconolactone are 100: 43: 43: 26, respectively, at 20 mM substrate concentration. The enzyme has a broad pH optimum between about 5 and 6.

[2] = target: T1, C. versicolor P2O (Trametes versicolor, UniProt P79076); assay: Relative activities of C. versicolor P2O on pyranose substrates; format: biochemical; settings: 1% (w/v) substrate; D-glucose = 100
T1 construct: A single band having a molecular weight of about 65,000 was observed when the enzyme was analyzed by SDS-PAGE; made in house; host or cells: C. versicolor itself (native producer; high-producer culture selected from NRRL 15152 / CMCC 0748)
Protocol: The enzyme was applied to a 2.6×40 cm DEAE column, washed, and eluted using a 0-300 mM NaCl gradient. The P2O elutes at about 220 mM. Portions of each fraction were assayed for P2O activity, by monitoring peroxide generation conventionally. Protein concentration was also determined by a conventional method. The fractions containing P2O activity were pooled and concentrated by ultrafiltration with an Amicon PM10 filter obtained from Amicon Corp. Peak fractions were dialyzed into 30 mM sodium acetate (pH 5.5), adjusted to 1.5M NaCl and loaded onto a phenylsepharose column. The P2O was eluted with a 0-1.5M NaCl gradient in 50 mM sodium acetate, pH 5.5. The enzyme eluted at about 1.1M NaCl. Fractions containing the peak activity were pooled and concentrated to 0.5 ml by Amicon PM30 ultrafiltration and sized according to native molecular weight using a 1.5×95 cm Biogel P300 column. Elution was at 0.1 ml/minute with 100 mM sodium phosphate, pH 7.0. Using known molecular weight markers in the column, the enzyme's apparent native molecular weight was calculated to be about 130,000 daltons. A single band having a molecular weight of about 65,000 was observed when the enzyme was analyzed by SDS-PAGE. The enzyme thus appears to be a homodimer. The enzyme was judged to be about 95% pure, based on the staining intensity of protein bands in SDS-PAGE.
The relative activities of the enzyme on the substrates D-glucose, L-sorbose, D-xylose and delta-D-gluconolactone are 100: 74: 41: 6, respectively, at 1% (w/v) substrate concentration. The enzyme has a pH optimum of about 5.0.

[3] = test system: P. obtusus P2O; assay: Relative activities of P. obtusus P2O on pyranose substrates; format: biochemical; settings: about 1% (w/v) substrate; D-glucose = 100
Protocol: The P2O enzyme preparation from Example II was purified further using DEAE chromatography in 30 mM TRIS-HCl, pH 8.5, containing 2 mM EDTA and 10 ug/ml PMSF. The sample was eluted from a 5×16 cm column using a gradient of 0-300 mM NaCl. P2O activity was monitored using the orthodianisidine colorometric assay for the peroxide co-product, essentially as described by Ruelius et al., Biochim et Biophys. Acta 167, 493-500 (1968). P2O activity eluted at about 50 mM NaCl. Fractions containing the peak activity were pooled and concentrated to 0.5 ml by ultrafiltration using Amicon filters obtained from Amicon Corp. (Danvers, MA). Biogel P300 was obtained from Biorad Laboratories (Richmond, CA). The sample was further purified by molecular sieve chromatography using a 1.5×95 cm Biogel P300 column in 100 mM sodium phosphate, pH 7 buffer. The P2O activity eluted at a sharp peak corresponding to an apparent native molecular weight of about 290,000 daltons.
The enzyme appears to contain one covalently bound flavin molecule per subunit (detectable as UV-fluorescence in the 68,000 dalton SDS-PAGE band), and has absorption maxima at 276, 357 and 456 nm. The enzyme has a sedimentation coefficient of about 11.4, as determined by sucrose gradient ultracentrifugation. The relative activities of the enzyme, on D-glucose, L-sorbose, D-xylose, and D-gluconolactone are 100: 80: 48: 12, respectively, at about 1% (w/v) substrate concentration. As noted above with respect to FIG. 2, the enzyme has a broad pH optimum of between about 4.5 and 5.5.

[4] = Glucosone breakdown on control of reaction pH by base addition; format: physicochemical; settings: NaOH versus buffer such as 1M sodium bicarbonate or 1M TRIS-HCl
Protocol: Attempts to control reaction pH by the periodic addition of base have not been entirely successful. […] Therefore, in order to reduce glucosone breakdown, the base must be added in a manner which minimizes local regions of high pH in the solution. […] Introduction of the buffer with rapid mixing further reduces glucosone breakdown, presumably by reducing locally-elevated pH levels which occur when the buffer is added. It was noted above that even pH's in the range of 7.0 can lead to relatively rapid nonenzymatic glucosone breakdown. Ideally therefore, where high purity and yield are desired, one would like to avoid adding base to the reaction to offset the buildup of acidic by-products.

[5] = Nonenzymatic breakdown of glucosone (UV scan); format: physicochemical; settings: 0.5% solution
Source text: Secondly, studies indicate that pure glucosone undergoes relatively rapid, nonenzymatic breakdown above a pH of about 7.0. In one experiment, a 0.5% solution of highly purified glucosone (prepared by enzymatic conversion of glucose by a purified P. obtusus P2O enzyme at pH 4.4) was brought to pH 7.0 in a buffered solution. Immediately thereafter, the solution was scanned spectrophotometrically in the UV range between 200 and 350 nm, at one minute intervals.

[6] = Ericsson et al. and Lindberg et al.; cited from earlier work

| Structure (SMILES) | relative activity of L. betulinus P2O on substrate [1] | relative activity of C. versicolor P2O on substrate [2] | relative activity of P. obtusus P2O on substrate [3] | glucosone breakdown with periodic NaOH addition [4] | 310 nm peak (nonenzymatic breakdown) ([5]; pH 6.0, several minutes) | increase of 310 nm peak (nonenzymatic breakdown) ([5]; pH 7.0, five minute period) | stability under alkaline conditions [6] |
| --- | --- | --- | --- | --- | --- | --- | --- |
| OC1OC[C@@H](O)[C@H](O)[C@H]1O (stereo partly drawn) [D-xylose] | 43 | 41 | 48 | – | – | – | – |
| OC[C@H]1OC(O)[C@H](O)[C@@H](O)[C@@H]1O (stereo partly drawn) [D-glucose] | 100 | 100 | 100 | – | – | – | – |
| O=C(CO)[C@@H](O)[C@H](O)[C@@H](O)CO [L-sorbose] | 43 | 74 | 80 | – | – | – | – |
| O=C1O[C@H](CO)[C@@H](O)[C@H](O)[C@H]1O [delta-D-gluconolactone] | 26 | 6 | 12 | – | – | – | – |
| O=CC(=O)[C@@H](O)[C@H](O)[C@H](O)CO [glucosone, D-arabino-2-hexosulose] | – | – | – | more glucosone breakdown | no initial peak at 310 nm was observed nor did one form | increasing several-fold | breaks down under alkaline conditions |
